IC50 and Activity data for one compound are collected here from ChEMBL document CHEMBL1155610, “A new indanone from the marine cyanobacterium Lyngbya majuscula that inhibits hypoxia-induced activation of the VEGF promoter in Hep3B cells” (J Nat Prod, 2000).

Common to all, as to type: functional, cell-based
Assay [1] has as its system Hep 3B2. As to the kind of experiment: Inhibition of hypoxia-induced activation of VEGF gene promoter in human Hep3B cells after 18 hrs by luciferase reporter gene assay.
Assay [2] deals with Hep 3B2. As to the kind of experiment: Growth inhibition of human Hep3B cells after 18 hrs.
Assay [3] deals with Hep 3B2. The experiment in a line: Effect on luciferase reporter gene expression in human Hep3B cells after 18 hrs. For orientation: A reporter such as luciferase makes a cellular process visible.
Assay [4] deals with Hep 3B2. As to the kind of experiment: Inhibition of hypoxia-induced VEGF165 protein secretion in human Hep3B cells after 18 hrs by ELISA. Background: ELISA stands for enzyme-linked immunosorbent assay.

Molecules are shown by their SMILES. Active and inactive are the calls of the source. No cut-off for these calls is given here.

By IC50 is commonly meant the concentration that gives 50% inhibition. Compound `COC1CC(=O)c2c(C=O)cc(C)cc21` (centres undefined) had an IC50 in the assay with Hep 3B2 [1] of 25 µM. Also, the result in the assay on Hep 3B2 [2], in the assay with Hep 3B2 [3] and with Hep 3B2 [4] was inactive.
